Columns and labels:
8-oxo-dG = assay: Oxidative DNA damage (8-oxo-dG IHC) in wound skin tissues of STZ mice; format: in vivo, mouse
Source text: Diabetes mouse model and treatments. Nrf2^+/+ and Nrf2^-/- C57BL/6 mice were described previously (see, e.g., Jiang T, et al., Diabetes 59:850-860, 2010) and were housed and handled in accordance with the University of Arizona Institutional Animal Care policies. The STZ-induced diabetic model was previously described (see, e.g., Zheng H, et al., Diabetes 60:3055-3066, 2011) and only 8 week old male mice were included in this study. Briefly, three weeks after STZ injections, fasting glucose levels (FGL, 4 h fast) were measured using the AlphaTRAK system (Abbott Laboratory, North Chicago, Ill.) and mice with a FGL higher than or equal to 250 mg/dL were considered diabetic and included in the study (see, e.g., FIG. 2A and FIG. 3A for a detailed timeline). The mice (n=5-8) were then allocated randomly to each of the indicated treatment groups and received corn oil (control), 12.5 mg/kg SF or 50 mg/kg CA intraperitoneally every two days until skin tissues were harvested. One week after the treatments, the mice were anesthetized, their backs were shaved and cleaned. […] Gross wound closure was quantified by ImageJ software, and wound healing was expressed as the percentage of the original wound area that had healed. […] Morphology was assessed by hematoxylin and eosin (H&E) staining (Vector laboratory, Burlingame, Calif.). […]

[1] = Digital infrared thermal imaging of wounds in STZ mice; format: in vivo, mouse; conditions: exaggerated gradient vs Con group
Method: Diabetes mouse model and treatments. […] Briefly, three weeks after STZ injections, fasting glucose levels (FGL, 4 h fast) were measured using the AlphaTRAK system (Abbott Laboratory, North Chicago, Ill.) and mice with a FGL higher than or equal to 250 mg/dL were considered diabetic and included in the study (see, e.g., FIG. 2A and FIG. 3A for a detailed timeline). The mice (n=5-8) were then allocated randomly to each of the indicated treatment groups and received corn oil (control), 12.5 mg/kg SF or 50 mg/kg CA intraperitoneally every two days until skin tissues were harvested. One week after the treatments, the mice were anesthetized, their backs were shaved and cleaned. Two wounds were made with a sterile 6 mm skin biopsy punch (Health link, Jacksonville, Fla.) and covered with 3M Tegaderm pads. The wounds were photographed using an in vivo imaging system and an infrared integrated system (IRISYS, Northampton, UK) for 14 days. Gross wound closure was quantified by ImageJ software, and wound healing was expressed as the percentage of the original wound area that had healed. The tissues were collected using an 8 mm skin biopsy punch; one half was fixed in 10% buffered formalin and embedded in paraffin while the other half was used for protein extraction. […]

MMP9 = MMP9 immunoblot and gelatin zymography in HaCaT cells under high glucose; format: cell-based, human; conditions: HG HaCaT cells, 5 μmol/L SF or 20 μmol/L CA
Method: (§1) Human immortalized keratinocytes HaCaT were obtained from the Arizona Cancer Center (see, e.g., Boukamp P, et al., J Cell Biol 106:761-771, 1988). Cells were grown in Dulbecco's modified Eagle's medium (DMEM) containing low glucose (LG, 5.5 mmol/L) and 10% fetal bovine serum (FBS) in an incubator at 37° C. with 5% CO2. For the experiments, the cells were starved in serum-free LG DMEM for 24 h, then either maintained in LG DMEM or switched to high glucose (HG, 25 mmol/L) DMEM for 2 days (see, e.g., Zheng H, et al., Diabetes 60:3055-3066, 2011; Lan C C, et al., Br J Dermatol 159:1103-1115, 2008). For the treatments, the cells were dosed with 5 μmol/L SF or 20 μmol/L CA.
(§2) siRNA transfections. […]
Cultured HaCaT cells were harvested in 1× sample buffer (50 mM Tris-HCl pH 6.8, 2% sodium dodecyl sulfate (SDS), 10% glycerol, 100 mM dithiothreitol (DTT), 0.1% bromophenol blue), boiled and sonicated. […] TGF-β1 was measured using the Quantikine human TGF-β1 immunoassay kit (R&D systems; Minneapolis, Minn.) according to the manufacturer's instructions. The absorbance at 450 nm was measured using a Synergy 2 microplate reader (BioTek, Winooski, Vt.) and the amount of TGF-β1 was calculated by standard curve. MMP9 activity was evaluated by gelatin zymography as described elsewhere (see, e.g., Toth M, et al., Methods Mol Biol 878:121-135, 2012; Zhu P, et al., Exp Dermatol 21:123-129, 2012). […]

Ki67 = Ki67 immunofluorescence in HaCaT cells; format: cell-based, human; conditions: HG HaCaT cells; 5 μmol/L SF or 20 μmol/L CA
Method: as §1, §2
Reactive oxygen species (ROS) measurement, cell proliferation and apoptosis. ROS were measured in HaCaT cells using DCF. […] Then, 48 h later, the cells were switched into fresh medium containing 10 μg/mL DCF, incubated 30 min, and fluorescence intensity was measured by flow cytometry. The rate of cell proliferation was measured by two methods (see, e.g., Ren D, et al., Proc Natl Acad Sci USA 108:1433-1438, 2011): 1) detection of Ki67 using indirect immunofluorescence as described previously (see, e.g., Lau A, et al., Mol Cell Biol 30:3275-3285, 2010); and 2) using the xCELLigence system (Roche). […]

Compound: O=CC=Cc1ccccc1 [CA, Cinnamaldehyde]
- oxidative DNA damage (8-oxo-dG) (8-oxo-dG): greatly alleviated the oxidative DNA damage
- temperature gradients (ΔT) between wound area and surrounding healthy tissue [1]: abolished this effect
- expression and activity of MMP9 (MMP9): decreased
- Ki67 expression (Ki67): could restore some of the Ki67 expression

Compound: C[S@@+]([O-])CCCCN=C=S [SF, L-sulforaphane]
- oxidative DNA damage (8-oxo-dG) (8-oxo-dG): greatly alleviated the oxidative DNA damage
- temperature gradients (ΔT) between wound area and surrounding healthy tissue [1]: abolished this effect
- expression and activity of MMP9 (MMP9): decreased
- Ki67 expression (Ki67): could restore some of the Ki67 expression
